Measured values as given in patent US9643976B2, “Solvates of darunavir” (Aurobindo Pharma Ltd., priority 2012, dated 2017).

Experiments:
[1] = hygroscopicity at moderate or high relative humidity at 25° C.; type: physicochemical
Description: Further, the isolation of Darunavir ethanolate involves special precautions during isolation, drying and powder processing, which is onerous during the large scale manufacturing of Darunavir ethanolate.

[2] = hygroscopic testing (solvent content before and after); conditions: for Final (Solvent content): after hygroscopic testing at 25° C.±2° C. and 80% RH±2° C. for 24 h, solvent replaced with water; for Initial (Solvent content): before hygroscopic testing

With `CC(C)CN(C[C@@H](O)[C@H](Cc1ccccc1)NC(=O)O[C@H]1CO[C@H]2OCC[C@H]21)S(=O)(=O)c1ccc(N)cc1` [Darunavir ethanolate] the “hygroscopicity / conversion to hydrate” value [1] was “hygroscopic and converts to Darunavir hydrate”, the “Final (Solvent content)” value [2] was 0.67% and the “Initial (Solvent content)” value [2] was 6.75%.

With `CC(C)CN(C[C@@H](O)[C@H](Cc1ccccc1)NC(=O)O[C@H]1CO[C@H]2OCC[C@H]21)S(=O)(=O)c1ccc(N)cc1` [Darunavir propylene glycolate] the “Final (Solvent content)” value [2] was 10.37% and the “Initial (Solvent content)” value [2] was 11.51%.
